Experiments:
OAT1 = target: T1, OAT1 (Homo sapiens, UniProt Q4U2R8); assay: Inhibition of 6-carboxyfluorescein uptake in HEK293/OAT1 cells; assay type: cell-based; conditions: ratio of OAT1 IC50 to hURAT1 IC50 (selectivity)
T1 construct: host or cells: HEK293/OAT1 (hygromycin B selection)
T1 sequence (Q4U2R8 1-563): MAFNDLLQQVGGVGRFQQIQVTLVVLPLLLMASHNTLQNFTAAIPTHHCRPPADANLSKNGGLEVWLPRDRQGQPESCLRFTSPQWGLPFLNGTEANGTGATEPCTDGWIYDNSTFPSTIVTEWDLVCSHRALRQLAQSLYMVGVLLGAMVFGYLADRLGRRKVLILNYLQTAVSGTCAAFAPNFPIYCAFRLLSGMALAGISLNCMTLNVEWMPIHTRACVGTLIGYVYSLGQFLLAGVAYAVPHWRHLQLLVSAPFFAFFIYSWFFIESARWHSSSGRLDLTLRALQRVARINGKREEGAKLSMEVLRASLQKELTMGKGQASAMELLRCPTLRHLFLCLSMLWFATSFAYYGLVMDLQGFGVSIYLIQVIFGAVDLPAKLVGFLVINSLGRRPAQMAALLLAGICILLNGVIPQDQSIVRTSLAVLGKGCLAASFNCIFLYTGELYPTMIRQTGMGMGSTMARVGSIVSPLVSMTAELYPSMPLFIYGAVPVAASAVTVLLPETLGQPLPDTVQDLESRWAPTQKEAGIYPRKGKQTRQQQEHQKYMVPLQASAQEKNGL
Experimental: 1. Reagents and Consumables
2. Culture Media and Solutions
Thaw medium: 90% DMEM+10% FBS+1× Pen/Strep, preserved at 4° C. for later use.
Culture medium: 90% DMEM+10% FBS+1× Pen/Strep+100 μg/mL Hygromycin B, preserved at 4° C. for later use.
5× Matrigel: 1 vial of Matrigel was thawed overnight at 4° C., then diluted to 500 mL with cold DMEM. The resulting solution was preserved at 4° C. for later use after subpackaging.
Uptake assay buffer: 487.5 mL HBSS buffer was mixed with 12.5 mL 1M HEPES, with the final HEPES concentration being 25 mM. This was prepared right before the experiment.
30 mM probenecid: 2 mg of the powder was dissolved in 233.62 μL of 100% DMSO. The resulting solution was preserved at −20° C. for later use after subpackaging.
The resulting solution was preserved at −20° C. for later use after subpackaging.
The resulting solution was preserved away from light at 4° C. for later use after subpackaging.
Envision multimode plate reader (with parameters as follows)
Emission wavelength: 590 nm
4. Experimental Procedures
The cells were quickly taken out from a liquid nitrogen tank and shaken in a water bath at 37° C. until completely thawed. The cell suspension was quickly added to a pre-heated culture medium and centrifuged at 1000 rpm for 5 min. The supernatant was discarded. A fresh pre-heated culture medium was added for resuspension. The cell suspension was transferred into a 100 mm dish and incubated at 37° C. at 5% CO2.
Typically, the cells were passaged every 2-3 days in a ratio of 1:3 to 1:5.
5× Matrigel was added to a 384-well cell plate at 5 μL/well for incubation in an incubator at 37° C. for 30 min, followed by digestion.
Cells were collected after digestion, counted, resuspended at 1×10^6 cells/mL using a culture medium, and added to a coated plate at 60 μL/well by using a Multidrop Combi to give a cell density of 6×10^4 cells/well, followed by incubating overnight at 37° C. at 5% CO2.
3) Preparation of Uptake Assay Buffer
On the day of experiment, fresh buffer was prepared as needed.
4) Preparation of Compounds (Using ECHO)
Working solutions of 11 concentrations were prepared for plotting a curve with stock solutions of 3 concentrations using PlateMap. The 3 concentrations were 30 mM, 0.3 mM, 0.003 mM, all formulated in DMSO.
5) Preparation of a Mixed Solution of 6-Carboxyfluorescein (6 μM) and Compounds
According to amount used, 6-carboxyfluorescein (1 mM) was diluted with uptake assay buffer to give a diluted 6-carboxyfluorescein solution (6 μM). […] The mixture was preserved away from light for later use. The concentration of DMSO was 2% at this time.
The cells were incubated overnight before the culture medium was carefully removed. Then 80 μL of uptake assay buffer was added to each well at room temperature for washing the cells 3 times. After washing, 20 μL of uptake assay buffer was added to each well.
The mixed solution of 6-CF (6 μM) and compounds, prepared in step 5, was transferred to a cell plate at 20 μL/well with Bravo. The mixed solution was centrifuged at 400 rpm for 1 min, and incubated away from light at room temperature for 10 min. At this time, the concentration of 6-CF became 3 μM, the concentration of the compound became the final concentration, and the concentration of DMSO became 1%.
The cells were washed 3 times with pre-cooled uptake assay buffer at 80 μL/well, to remove unbound 6-CF.
The plate was read on the Envision. The data were recorded and processed to calculate IC50.
According to the fluorescence signals of HPE and ZPE on each cell plate, the inhibition rate (%) of the compound in each well on the cell plate was calculated.
The XLfit software was used to plot the curve for calculating the IC50 values of the compounds. The IC50 value of the positive compound was also one of the criteria for controlling the quality of each experiment.

[1] = system: primary human hepatocytes; assay: Cytotoxicity assay on primary human hepatocytes (CellTiter-Glo, 48 h); assay type: cell-based; conditions: Hepatocyte, cell viability, 48 h incubation
Experimental: Example 26: Cytotoxicity Assay of Compounds on Primary Human Hepatocytes
Primary human hepatocytes were purchased from Biorecamation IVT. Co., Ltd. (lot no.: AKB/S1391); the components of in vitro culture media of primary human cell and suppliers are as follows:
1. Frozen primary human hepatocytes were thawed, then resuspended in a culture medium containing 10% FBS. The cells were transferred into a 96-well plate, at 8×10^4 cells/well, followed by incubating overnight in an incubator at 5% CO2 at 37° C.;
2. […] The test compounds and control drug were added to wells, at 100 μL/well, to form test compound wells or reference wells, and the culture medium containing 10% FBS was added to wells, at 100 μL/well, as negative control. The cells were incubated in an incubator in the presence of 5% CO2 at 37° C. for 48 h.
3. The primary human hepatocytes were washed with PBS (0.1 M, pH=7.4) twice, and were added with CellTiter-Glo reagent at 100 μL/well. Cell-free wells added with CellTiter-Glo reagent at 100 μL/well served as the blank control. The 96-well plate was shaken on a shaker for 5 min, and then left at room temperature for 10 min.
4. The chemiluminescence values were detected using Victor X4 (Perkin Elmer). The chemiluminescence values of the test compound wells were denoted as F(test compound), the chemiluminescence values of the blank control wells were denoted as F(blank), and the chemiluminescence values of the negative control wells were denoted as F(negative control). The cell viabilities at different concentrations were calculated according to the following formula. Each concentration was measured in triplicate to give the average and the standard deviation.
5. The half maximal inhibitory concentration (IC50) of the test compounds to the primary human hepatocytes were calculated using Prism Graph software.

Compound	IC50, OAT1/IC50, hURAT1 (OAT1)	IC50 [1] [µM]
CCc1nc2ncc(F)cn2c1C(=O)c1cc(Br)c(O)c(Br)c1 [Example 4, (3,5-dibromo-4-hydroxyphenyl)(2-ethyl-6-fluoroimidazo[1,2-a]pyrimidin-3-yl)methanone]	55.0	257
CCc1nc2ncc(Cl)cn2c1C(=O)c1cc(Br)c(O)c(Br)c1 [Example 6, (6-chloro-2-ethylimidazo[1,2-a]pyrimidin-3-yl)(3,5-dibromo-4-hydroxyphenyl)methanone]	33.6	–
CCc1nc2ncc(Br)cn2c1C(=O)c1cc(Br)c(O)c(Br)c1 [Example 3, (6-bromo-2-ethylimidazo[1,2-a]pyrimidin-3-yl)(3,5-dibromo-4-hydroxyphenyl)methanone]	13.8	–
CCc1nc2ncccn2c1C(=O)c1cc(Br)c(O)c(C(F)(F)F)c1 [Example 23, (3-bromo-4-hydroxy-5-(trifluoromethyl)phenyl)(2-ethylimidazo[1,2-a]pyrimidin-3-yl)methanone]	5.2	–
CCc1nc2ncc(F)cn2c1C(=O)c1cc(Br)c(O)c(C#N)c1 [Example 14, 3-bromo-5-(2-ethyl-6-fluoroimidazo[1,2-a]pyrimidine-3-carbonyl)-2-hydroxybenzonitrile]	3.5	≥ 1000
CCc1nc2ncc(F)cn2c1C(=O)c1cc(Br)c(O)c(C(F)(F)F)c1 [Example 18, (3-bromo-4-hydroxy-5-(trifluoromethyl)phenyl)(2-ethyl-6-fluoroimidazo[1,2-a]pyrimidin-3-yl)methanone]	24.5	–
CCn1nc2ccc(F)cc2c1C(=O)c1cc(Br)c(O)c(Br)c1 [Example 9, (3,5-dibromo-4-hydroxyphenyl)(2-ethyl-5-fluoro-2H-indazol-3-yl) methanone]	7.6	–
CCn1nc2ccncc2c1C(=O)c1cc(Br)c(O)c(Br)c1 [Example 16, (3,5-dibromo-4-hydroxyphenyl)(2-ethyl-2H-pyrazolo[4,3-c]pyridin-3-yl)methanone]	17.4	–
CCc1nc2cc(C(F)(F)F)ncn2c1C(=O)c1cc(Br)c(O)c(Br)c1 [Example 7, (3,5-dibromo-4-hydroxyphenyl)(2-ethyl-7-(trifluoromethyl)imidazo[1,2-c]pyrimidin-3-yl)methanone]	14.2	–
CCc1nc2cc(Cl)ncn2c1C(=O)c1cc(Br)c(O)c(Br)c1 [Example 21, (7-chloro-2-ethylimidazo[1,2-f]pyrimidin-3-yl)(3,5-dibromo-4-hydroxyphenyl)methanone]	3.8	347
CCc1nc2ncccn2c1C(=O)c1cc(Br)c(O)c(Br)c1 [Example 20, 2,6-dibromo-4-([2-ethylimidazo[1,2-a]pyrimidin-3-yl]carbonyl) phenol]	8.0	–
CCc1nc2ncc(C(F)(F)F)cn2c1C(=O)c1cc(Br)c(O)c(Br)c1 [Example 5, (3,5-dibromo-4-hydroxyphenyl)(2-ethyl-6-(trifluoromethyl)imidazo[1,2-a]pyrimidin-3-yl)methanone]	34.4	77.8
CCc1nc2ncccn2c1C(=O)c1cc(Br)c(O)c(C#N)c1 [Example 22, 3-bromo-5-(2-ethylimidazo[1,2-a]pyrimidine-3-carbonyl)-2-hydroxybenzonitrile]	2.0	–

From patent US11453674B2, “Heterocyclic compound, preparation method and use thereof in medicine” (SUZHOU SINOVENT PHARMACEUTICALS CO., LTD., priority 2019, dated 2022)
